Assay results taken from PubChem BioAssay (NCI).
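Dose response: 5 concentrations. Exposure: 48 h. Format: 96-well plates. Endpoint: linear interpolation; highest concentration if not reached. TGI is the concentration that stops growth completely.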

How the values were obtained:
Assay in all cases: NCI tumour cell line growth inhibition, 48 h
[1] = test system: HOP-62 NSCLC
[2] = test system: HOP-92 NSCLC
[3] = test system: OVCAR-5 ovarian
[4] = test system: NCI-H226 lung
[5] = test system: HCT-116 colon
[6] = test system: ACHN renal
[7] = test system: KM12 colon
[8] = test system: HCC-2998 colon
[9] = test system: SR leukemia
[10] = test system: MOLT-4 leukemia
[11] = test system: K-562 leukemia
[12] = test system: UO-31 renal
[13] = test system: RXF 393 renal
[14] = test system: SK-OV-3 ovarian
[15] = test system: UACC-257 melanoma
[16] = test system: EKVX NSCLC
[17] = test system: U251 CNS
[18] = test system: MCF7 breast
[19] = test system: TK-10 renal
[20] = test system: OVCAR-3 ovarian
[21] = test system: MDA-MB-435
[22] = test system: SK-MEL-5 melanoma
[23] = test system: LOX IMVI melanoma
[24] = test system: MDA-MB-231 breast
[25] = test system: NCI-H522 lung
[26] = test system: SK-MEL-2 melanoma
[27] = test system: NCI-H460 lung
[28] = test system: CCRF-CEM leukemia
[29] = test system: NCI/ADR-RES ovarian
[30] = test system: OVCAR-4 ovarian
[31] = test system: 786-0 renal
[32] = test system: CAKI-1 renal
[33] = test system: MDA-N
[34] = test system: HT29 colon
[35] = test system: IGROV1 ovarian
[36] = test system: HCT-15 colon
[37] = test system: DU-145 prostate
[38] = test system: SW-620 colon
[39] = test system: SF-539 CNS
[40] = test system: PC-3 prostate
[41] = test system: A498 renal
[42] = test system: SF-268 CNS
[43] = test system: T-47D breast
[44] = test system: HS 578T breast
[45] = test system: SK-MEL-28 melanoma
[46] = test system: OVCAR-8 ovarian
[47] = test system: SF-295 CNS
[48] = test system: RPMI-8226 leukemia
[49] = test system: MALME-3M melanoma
[50] = test system: COLO 205 colon
[51] = test system: SNB-75 CNS
[52] = test system: SN12C renal
[53] = test system: SNB-19 CNS
[54] = test system: NCI-H23 lung
[55] = test system: M14 melanoma
[56] = test system: A549 NSCLC
[57] = test system: UACC-62 melanoma
[58] = test system: HL-60(TB) leukemia

In the case of `CN1CCN(Cn2nc(COc3ccc(Cl)cc3)n(/N=C/c3ccc(-c4ccc(Cl)cc4Cl)o3)c2=S)CC1`, the TGI [1] is reported as 16.8 µM, the TGI [2] is reported as 22.7 µM and the TGI [3] is reported as 33.2 µM. It also gave a TGI [4] of 49.2 µM, a TGI [5] of 26.2 µM and a TGI [6] of 33.9 µM. For the same compound, the TGI [7] was 11 µM, the TGI [8] was 7.72 µM and the TGI [9] was 14.8 µM. It also gave a TGI [10] of 41.1 µM, a TGI [11] greater than 100 µM and a TGI [12] of 32.6 µM. The TGI [13] was 7.13 µM, the TGI [14] was 30.2 µM and the TGI [15] was 36.7 µM. It also gave a TGI [16] of 37.7 µM, a TGI [17] of 23.1 µM and a TGI [18] of 36.7 µM. The TGI [19] was 30.6 µM, the TGI [20] was 30.6 µM and the TGI [21] was 8.02 µM. The TGI [22] was 35.5 µM, the TGI [23] was 24.1 µM and the TGI [24] was 22 µM. It also gave a TGI [25] of 10.2 µM, a TGI [26] of 41 µM and a TGI [27] of 34.3 µM. For the same compound, the TGI [28] was 17.3 µM, the TGI [29] was 38.9 µM and the TGI [30] was 10.5 µM. The TGI [31] was 17 µM, the TGI [32] was 28.3 µM and the TGI [33] was 14.1 µM. For the same compound, the TGI [34] was 15.4 µM, the TGI [35] was 24 µM and the TGI [36] was 36.9 µM. It also gave a TGI [37] of 25 µM, a TGI [38] of 19 µM and a TGI [39] of 72.3 µM. It also gave a TGI [40] of 23.5 µM, a TGI [41] of 32.6 µM and a TGI [42] of 21.3 µM. It also gave a TGI [43] of 46.3 µM, a TGI [44] of 23.8 µM and a TGI [45] of 28.2 µM. For the same compound, the TGI [46] was 18.7 µM and the TGI [47] was 27.8 µM.

In the case of `CC(C)=CCc1ccc2[nH]c3c(c2c1)C(=O)C(=O)C(C)=C3C(O)C(C)O` (centres undefined), the TGI [1] is reported as 37.8 µM, the TGI [2] is reported as 3.51 µM and the TGI [48] is reported as 6.17 µM. It also gave a TGI [3] of 34.2 µM, a TGI [4] of 34.2 µM and a TGI [5] of 3.43 µM. For the same compound, the TGI [6] was 11.5 µM, the TGI [7] was 30.1 µM and the TGI [8] was 14.8 µM. For the same compound, the TGI [9] was 12.4 µM, the TGI [10] was 4.83 µM and the TGI [11] was 5.78 µM. For the same compound, the TGI [12] was 2.96 µM, the TGI [13] was 4.68 µM and the TGI [14] was 29.7 µM. The TGI [15] was 3.71 µM, the TGI [16] was 30.1 µM and the TGI [17] was 13.2 µM. The TGI [18] was 3.4 µM, the TGI [49] was 3.37 µM and the TGI [19] was 4.76 µM. For the same compound, the TGI [20] was 13 µM, the TGI [50] was 4.89 µM and the TGI [21] was 9.57 µM. The TGI [22] was 7.22 µM, the TGI [23] was 4.73 µM and the TGI [51] was 34.1 µM. For the same compound, the TGI [24] was 15.8 µM, the TGI [26] was greater than 82.9 µM and the TGI [27] was 37.2 µM. For the same compound, the TGI [28] was 4.98 µM, the TGI [29] was greater than 85.4 µM and the TGI [52] was 45.8 µM. It also gave a TGI [30] of 13.2 µM, a TGI [53] of 31 µM and a TGI [31] of 3.27 µM. For the same compound, the TGI [32] was 11.5 µM, the TGI [33] was 19.7 µM and the TGI [34] was 35.1 µM. The TGI [54] was 31.8 µM, the TGI [55] was 3.9 µM and the TGI [35] was 7.2 µM. It also gave a TGI [36] of 16.3 µM, a TGI [37] of 22.4 µM and a TGI [38] of 4.7 µM. It also gave a TGI [56] of 56.5 µM, a TGI [57] of 11.6 µM and a TGI [39] of 34 µM. It also gave a TGI [40] of 43.4 µM, a TGI [41] of 25.8 µM and a TGI [42] of 25 µM. It also gave a TGI [43] of 6.11 µM, a TGI [44] of 50.1 µM and a TGI [45] of 28.1 µM. It also gave a TGI [58] of 2.53 µM, a TGI [46] of 3.91 µM and a TGI [47] of 25 µM.
